In the assay the test system is tyrosinase. Nature of the assay: anti-tyrosinase action (oxidation of L-DOPA to DOPACHROME, Mason's method). In kind it is biochemical. To be noted: concentration which halves the initial speed of DOPACROME formation. Here is the method: To determine the de-pigmenting power of the extracts, their tyrosinase action was evaluated by measuring the product of oxidising L-DOPA to DOPACHROME (by HS Mason's method, 1948), carrying out the following stages: […]
mixing tyrosinase with L-DOPA in the phosphate buffer with an automatic pipette recording the optical density at 475 nm for 2 minutes, then calculating the initial speed of the enzyme reaction and determining the C150 (concentration which halves the initial speed of DOPACROME formation).

Each structure is given as a SMILES string.

In the case of `Oc1ccc(O)cc1` [Hydroquinone], the “C150 anti-tyrosinase effect in %” value is given as 0.025%.

(Values after patent US6406720B1, “Cosmetic containing plant extracts” (Laboratoires Serobiologiques (Societe Anonyme), priority 1997, dated 2002).)
